Read-outs that look alike come from different tables or passages of the source.
What was measured:
Format in all cases: cell-based
[1] = molecular target: T1, AKT2 (Homo sapiens, UniProt P31751); assay: Live cell AKT2 target engagement by NanoBRET competitive probe displacement; settings: HEK293 cells transfected with kinase-NanoLuciferase fusion, 2 h at 37° C.
T1 construct: expressed in transfected cells; host or cells: HEK293
In short: (§1)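 IC50 reflects displacement of a fluorescent ATP-competitive tracer, dosed near its EC50, from kinase–NanoLuciferase fusions in live HEK293 cells. Cells were incubated with compound and tracer for 2 h at 37 °C, then E600/E460 BRET was read.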

[2] = molecular target: T2, AKT1 E17K (Homo sapiens, UniProt P31749, E17K); assay: Live cell AKT1 E17K target engagement by NanoBRET competitive probe displacement; settings: HEK293 cells transfected with kinase-NanoLuciferase fusion, 2 h at 37° C.
T2 construct: expressed in transfected cells; host or cells: HEK293
T2 sequence (P31749 whole entry E17K, the tested form may be a part): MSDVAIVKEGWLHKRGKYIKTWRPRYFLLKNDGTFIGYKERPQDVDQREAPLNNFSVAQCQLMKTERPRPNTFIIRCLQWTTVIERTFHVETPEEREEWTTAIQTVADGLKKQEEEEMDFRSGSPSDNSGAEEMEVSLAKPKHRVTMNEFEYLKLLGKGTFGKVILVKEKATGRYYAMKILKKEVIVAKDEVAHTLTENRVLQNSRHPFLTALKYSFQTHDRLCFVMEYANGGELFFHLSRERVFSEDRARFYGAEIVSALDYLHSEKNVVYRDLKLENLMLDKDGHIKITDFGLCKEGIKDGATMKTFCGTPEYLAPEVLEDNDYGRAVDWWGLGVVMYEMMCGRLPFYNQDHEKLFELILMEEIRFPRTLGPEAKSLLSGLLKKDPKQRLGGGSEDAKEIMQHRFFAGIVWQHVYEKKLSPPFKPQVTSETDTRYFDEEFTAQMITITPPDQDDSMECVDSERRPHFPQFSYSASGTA
In short: as §1

[3] = system: LAPC4 prostate cancer cells; assay: Antiproliferative effects in LAPC4 cells (CellTiter Glo); settings: LAPC4 cells (AKT1 E17K allele), read-out: LAPC4 proliferation IC50
In short: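 Seed 1,000 cells/well in IMDM/12% FBS/1% P/S; add compound dilutions (DMSO); incubate 72 h; read intracellular ATP with CellTiter Glo; fit luminescence to log(inhibitor)-response Hill curve for IC50.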

[4] = molecular target: T3, AKT1 WT (Homo sapiens, UniProt P31749); assay: Live cell AKT1 WT target engagement by NanoBRET competitive probe displacement; settings: HEK293 cells transfected with kinase-NanoLuciferase fusion, 2 h at 37° C.
T3 construct: expressed in transfected cells; host or cells: HEK293
T3 sequence (P31749 whole entry, the tested form may be a part): as the sequence (P31749 whole entry E17K, the tested form may be a part) above, with K17E counted along it
In short: as §1

T1 sequence (P31751 whole entry, the tested form may be a part): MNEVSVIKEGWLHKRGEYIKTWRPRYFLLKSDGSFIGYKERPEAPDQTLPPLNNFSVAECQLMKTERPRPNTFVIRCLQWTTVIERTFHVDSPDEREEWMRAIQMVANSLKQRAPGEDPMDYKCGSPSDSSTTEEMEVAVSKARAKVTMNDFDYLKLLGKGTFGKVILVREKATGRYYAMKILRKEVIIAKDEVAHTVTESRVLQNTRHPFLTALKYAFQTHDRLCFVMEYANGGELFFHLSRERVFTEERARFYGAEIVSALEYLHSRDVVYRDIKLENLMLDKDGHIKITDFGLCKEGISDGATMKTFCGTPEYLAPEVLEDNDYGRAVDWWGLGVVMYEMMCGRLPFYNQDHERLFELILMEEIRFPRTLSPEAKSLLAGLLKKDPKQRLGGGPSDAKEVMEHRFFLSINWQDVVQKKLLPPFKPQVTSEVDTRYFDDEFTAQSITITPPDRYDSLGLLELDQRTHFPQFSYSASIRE

| SMILES | IC50 [1] | IC50 [2] | IC50 ([3]; 72 h) | IC50 [4] | IC50 ([3]; Homo sapiens, LAPC4, 72 h) |
| --- | --- | --- | --- | --- | --- |
| C=CC(=O)N1CCC(N[C@H]2CCc3cc(-n4c(-c5cccnc5N)nc5ccc(-n6cccn6)nc54)ccc32)C(C)C1 (single isomer, unassigned) [Example 102, 1-((3*,4*)-4-(((S)-5-(2-(2-aminopyridin-3-yl)-5-(1H-pyrazol-1-yl)-3H-imidazo[4,5-b]pyridin-3-yl)-2,3-dihydro-1H-inden-1-yl)amino)-3-methylpiperidin-1-yl)prop-2-en-1-one] | 101 nM | 35.4 nM | 147 nM | 8.09 nM | – |
| C=CC(=O)N1CCC(N[C@H]2CCc3cc(-n4c(-c5cccnc5N)nc5ccc(N6CC[C@H](F)C6)nc54)ccc32)CC1 [Example 226, 1-(4-{[(1S)-5-[2-(2-aminopyridin-3-yl)-5-[(3S)-3-fluoropyrrolidin-1-yl]imidazo[4,5-b]pyridin-3-yl]-2,3-dihydro-1H-inden-1-yl]amino}piperidin-1-yl)prop-2-en-1-one] | 68.9 nM | 22.5 nM | – | 105 nM | 276 nM |
| CC#CC(=O)Nc1ccccc1C(=O)N[C@H]1CCc2cc(-n3c(-c4cccnc4N)nc4ccc(-n5cccn5)nc43)ccc21 [Example 9, N-[(1S)-5-[2-(2-aminopyridin-3-yl)-5-(pyrazol-1-yl)imidazo[4,5-b]pyridin-3-yl]-2,3-dihydro-1H-inden-1-yl]-2-(but-2-ynamido)benzamide] | 440 nM | 96.9 nM | – | 21.9 nM | 528 nM |
| C=CC(=O)N1CCOCC(N[C@H]2CCc3cc(-n4c(-c5cccnc5N)nc5ccc(-n6cccn6)nc54)ccc32)C1 (single isomer, unassigned) [Example 54, 1-((*)-6-(((S)-5-(2-(2-aminopyridin-3-yl)-5-(1H-pyrazol-1-yl)-3H-imidazo[4,5-b]pyridin-3-yl)-2,3-dihydro-1H-inden-1-yl)amino)-1,4-oxazepan-4-yl)prop-2-en-1-one] | 292 nM | 58.5 nM | 107 nM | 27.1 nM | – |
| C#CC1CC(N[C@H]2CCc3cc(-n4c(-c5cccnc5N)nc5ccc(-n6cccn6)nc54)ccc32)CCN1C(=O)C=C (single isomer, unassigned) [Example 112, 1-((2*,4*)-4-(((S)-5-(2-(2-aminopyridin-3-yl)-5-(1H-pyrazol-1-yl)-3H-imidazo[4,5-b]pyridin-3-yl)-2,3-dihydro-1H-inden-1-yl)amino)-2-ethynylpiperidin-1-yl)prop-2-en-1-one] | 17.6 nM | 8.06 nM | 11.8 nM | 9.52 nM | – |
| C=CC(=O)N1CC2(CCC(N[C@H]3CCc4cc(-n5c(-c6cccnc6N)nc6ccc(-n7cccn7)nc65)ccc43)CC2)C1 [Example 32, 1-(7-{[(1S)-5-[2-(2-aminopyridin-3-yl)-5-(pyrazol-1-yl)imidazo[4,5-b]pyridin-3-yl]-2,3-dihydro-1H-inden-1-yl]amino}-2-azaspiro[3.5]nonan-2-yl)prop-2-en-1-one] | 41.6 nM | 10.1 nM | – | 13.1 nM | 14.1 nM |
| C=CC(=O)N(C)CC(=O)N[C@H]1CCc2cc(-n3c(-c4cccnc4N)nc4ccc(-n5cccn5)nc43)ccc21 [Example 52, (S)-N-(2-((5-(2-(2-aminopyridin-3-yl)-5-(1H-pyrazol-1-yl)-3H-imidazo[4,5-b]pyridin-3-yl)-2,3-dihydro-1H-inden-1-yl)amino)-2-oxoethyl)-N-methylacrylamide] | 3480 nM | 949 nM | – | 174 nM | 911 nM |
| C=CC(=O)N1CCC(N[C@H]2CCc3cc(-n4c(-c5cccnc5N)nc5ccc(-n6cccn6)nc54)ccc32)C1 (single isomer, unassigned) [Example 58, 1-((*)-3-(((S)-5-(2-(2-aminopyridin-3-yl)-5-(1H-pyrazol-1-yl)-3H-imidazo[4,5-b]pyridin-3-yl)-2,3-dihydro-1H-inden-1-yl)amino)pyrrolidin-1-yl)prop-2-en-1-one] | 1030 nM | 189 nM | 438 nM | 50.2 nM | – |
| C=CC(=O)N1CCC(N[C@H]2CCc3cc(-n4c(-c5cccnc5N)nc5ccc(-n6cccn6)nc54)ccc32)C[C@H]1COC (single isomer, unassigned) [Example 129, 1-[(2S,4*)-4-{[(1S)-5-[2-(2-aminopyridin-3-yl)-5-(pyrazol-1-yl)imidazo[4,5-b]pyridin-3-yl]-2,3-dihydro-1H-inden-1-yl]amino}-2-(methoxymethyl)piperidin-1-yl]prop-2-en-1-one] | 2720 nM | > 1000 nM | > 10000 nM | 115 nM | – |
| C=CC(=O)N1CCC(N[C@H]2CCc3cc(-n4c(-c5cccnc5N)nc5ccc(-n6cccn6)nc54)ccc32)C(OC)C1 (single isomer, unassigned) [Example 115, 1-((3*,4*)-4-(((S)-5-(2-(2-aminopyridin-3-yl)-5-(1H-pyrazol-1-yl)-3H-imidazo[4,5-b]pyridin-3-yl)-2,3-dihydro-1H-inden-1-yl)amino)-3-methoxypiperidin-1-yl)prop-2-en-1-one] | 40.4 nM | 9.26 nM | 40.7 nM | 8.19 nM | – |
| C=CC(=O)N1C[C@@H]2C[C@H]1CC2N[C@H]1CCc2cc(-n3c(-c4cccnc4N)nc4ccc(-n5cccn5)nc43)ccc21 (single isomer, unassigned) [Example 136, 1-[(1S,4S,5*)-5-{[(1S)-5-[2-(2-aminopyridin-3-yl)-5-(pyrazol-1-yl)imidazo[4,5-b]pyridin-3-yl]-2,3-dihydro-1H-inden-1-yl]amino}-2-azabicyclo[2.2.1]heptan-2-yl]prop-2-en-1-one] | 1950 nM | 211 nM | 520 nM | 95.8 nM | – |
| C=C(F)C(=O)Nc1ccccc1C(=O)N[C@H]1CCc2cc(-n3c(-c4cccnc4N)nc4ccc(-n5nccn5)nc43)ccc21 [Example 23, (S)-N-(5-(2-(2-aminopyridin-3-yl)-5-(2H-1,2,3-triazol-2-yl)-3H-imidazo[4,5-b]pyridin-3-yl)-2,3-dihydro-1H-inden-1-yl)-2-(2-fluoroacrylamido)benzamide] | 2250 nM | 135 nM | – | 50.1 nM | 426 nM |

Results, then the compound that gave them:

| IC50 [1] | IC50 [2] | IC50 ([3]; 72 h) | IC50 [4] | IC50 ([3]; Homo sapiens, LAPC4, 72 h) | SMILES |
| --- | --- | --- | --- | --- | --- |
| 36.3 nM | 10.7 nM | – | 273 nM | 124 nM | C=CC(=O)N1CCC(N[C@@H]2c3ccc(-n4c(-c5cccnc5N)nc5ccc(-n6ccc(OC)n6)nc54)cc3CC2F)CC1 (single isomer, unassigned) [Example 286, 1-(4-(((1R,2*)-5-(2-(2-aminopyridin-3-yl)-5-(3-methoxy-1H-pyrazol-1-yl)-3H-imidazo[4,5-b]pyridin-3-yl)-2-fluoro-2,3-dihydro-1H-inden-1-yl)amino)piperidin-1-yl)prop-2-en-1-one] |
| 1180 nM | 74.1 nM | 293 nM | 26 nM | – | C=CC(=O)N1CCC(N[C@@H]2c3ccc(-n4c(-c5cccnc5N)nc5ccc(-n6cccn6)nc54)cc3CC2F)C[C@H]1C (single isomer, unassigned) [Example 144, 1-((2R,4*)-4-(((1R,2*)-5-(2-(2-aminopyridin-3-yl)-5-(1H-pyrazol-1-yl)-3H-imidazo[4,5-b]pyridin-3-yl)-2-fluoro-2,3-dihydro-1H-inden-1-yl)amino)-2-methylpiperidin-1-yl)prop-2-en-1-one] |
| 246 nM | 34.9 nM | – | 1190 nM | 496 nM | C=CC(=O)N1CCC(N[C@@H]2c3ccc(-n4c(-c5cccnc5N)nc5ccc(-n6ccc(C#N)n6)nc54)cc3CC2F)CC1 (single isomer, unassigned) [Example 311, 1-(3-((1R,2*)-1-((1-acryloylpiperidin-4-yl)amino)-2-fluoro-2,3-dihydro-1H-inden-5-yl)-2-(2-aminopyridin-3-yl)-3H-imidazo[4,5-b]pyridin-5-yl)-1H-pyrazole-3-carbonitrile] |
| 36.2 nM | 11.6 nM | 641 nM | 264 nM | – | C=CC(=O)N1CCC(N[C@@H]2c3ccc(-n4c(-c5cccnc5N)nc5ccc(-n6cccn6)nc54)cc3CC2F)CC1C(F)F (single isomer, unassigned) [Example 304, 1-((2*,4*)-4-(((1R,2*)-5-(2-(2-aminopyridin-3-yl)-5-(1H-pyrazol-1-yl)-3H-imidazo[4,5-b]pyridin-3-yl)-2-fluoro-2,3-dihydro-1H-inden-1-yl)amino)-2-(difluoromethyl)piperidin-1-yl)prop-2-en-1-one] |
| 82.1 nM | 20.3 nM | – | 127 nM | 104 nM | C=CC(=O)N1CCC(N[C@H]2CCc3cc(-n4c(-c5cccnc5N)nc5ccc(-n6ccc(COC)n6)nc54)ccc32)CC1 [Example 280, 1-(4-{[(1S)-5-[2-(2-aminopyridin-3-yl)-5-[3-(methoxymethyl)pyrazol-1-yl]imidazo[4,5-b]pyridin-3-yl]-2,3-dihydro-1H-inden-1-yl]amino}piperidin-1-yl)prop-2-en-1-one] |
| 248 nM | 21.7 nM | 674 nM | 928 nM | – | C=CC(=O)N1CCC(N[C@@H]2c3ccc(-n4c(-c5cccnc5N)nc5ccc(-n6ccc(F)n6)nc54)cc3CC2F)C[C@@H]1C (single isomer, unassigned) [Example 271, 1-((2S,4*)-4-(((1R,2*)-5-(2-(2-aminopyridin-3-yl)-5-(3-fluoro-1H-pyrazol-1-yl)-3H-imidazo[4,5-b]pyridin-3-yl)-2-fluoro-2,3-dihydro-1H-inden-1-yl)amino)-2-methylpiperidin-1-yl)prop-2-en-1-one] |

From patent US12570655B2, “Cysteine covalent modifiers of AKT1 and uses thereof” (Terremoto Biosciences, Inc., priority 2023, dated 2026)
